Laboratory results taken from paper PMC12603982 (Angewandte Chemie (International Ed. in English), 2025).
Like-named read-outs stand apart in the source and are kept apart here. One block for each compound: values may come before it. Starred links: 1 amine or outer side, 2 acyl side, 3 side chain; linkers in the order of their positions; H or OH if unused. Positions of bridges follow the written chain, without caps; N, C: chain ends. Non-standard residues stand in square brackets, D forms with d. Residues, ends and D or L forms follow the SMILES beside them. Groups on a side chain read outwards from the residue. *: point of attachment. X3 = CCN1C(=CC=CC=CC2=[N+](CCCCCC(=O)*)c3ccc(S(=O)(=O)[O-])cc3C2(C)C)C(C)(C)c2cc(S(=O)(=O)O)ccc21; X1 = CCN1C(=CC=CC2=[N+](CCCCCC(=O)*)c3ccc(S(=O)(=O)O)cc3C2(C)C)C(C)(C)c2cc(S(=O)(=O)[O-])ccc21; X4 = CCN1C(=CC=CC2=[N+](CCCCCC(=O)*)c3ccc(S(=O)(=O)[O-])cc3C2(C)C)C(C)(C)c2cc(S(=O)(=O)O)ccc21; d(εLys) = N[C@H](CCCCN[*:1])C(=O)[*:2]; PEG5 = NCCOCCOCCOCCOCCOCCC(=O)O; Orn = NCCC[C@H](N)C(=O)O; Mpa = O=C(O)CCS

What was measured:
hOTR-GFP in HEK293 cells [1] = biological target: T1, hOTR-GFP in HEK293 cells (Homo sapiens, UniProt P30559); experiment: hOTR-GFP internalization and tracer uptake, confocal microscopy after fixation/ICC; format: cell-based; parameters: expressed in transfected cells; settings: for hOTR-GFP internalization / Tracer retention after ICC protocols: 100 nM; for Tracer retention after ICC protocols: 1 h stimulation, formaldehyde fixation, PBS washing; for Tracer signal after prolonged stimulation: 24 h treatment, post-fixation ICC
T1 sequence (P30559 1-389): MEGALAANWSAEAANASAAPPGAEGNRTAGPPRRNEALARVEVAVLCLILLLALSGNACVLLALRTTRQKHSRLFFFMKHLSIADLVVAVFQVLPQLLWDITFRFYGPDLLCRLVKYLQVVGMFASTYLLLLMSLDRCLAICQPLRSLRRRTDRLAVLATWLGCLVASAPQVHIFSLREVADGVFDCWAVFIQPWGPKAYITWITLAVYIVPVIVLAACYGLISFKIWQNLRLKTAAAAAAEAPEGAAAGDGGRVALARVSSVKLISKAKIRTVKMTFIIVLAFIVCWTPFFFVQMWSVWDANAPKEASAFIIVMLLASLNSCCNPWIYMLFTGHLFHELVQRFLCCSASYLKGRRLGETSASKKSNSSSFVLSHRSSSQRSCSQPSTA
Description: To validate the application scope of our tracers for biological systems and post‐hoc imaging, we used HEK293 cells stably overexpressing human OTR or V1aR, tagged with a C‐terminal fused green fluorescent protein to visualize receptor trafficking (hOTR‐GFP or hV1aR‐GFP, respectively).
subsequently washed with PBS and processed for immunocytochemistry.
Immunocytochemistry and imaging. Unspecific protein binding was quenched with 5% normal donkey serum
(Jackson ImmunoResearch), 2% bovine serum albumin (Sigma-Aldrich, Merck), and 0.2% Triton X-100 (Sigma-
Aldrich, Merck) in PBS. Next, cells were exposed to primary antibody cocktails containing FITC-conjugated goat-
anti-GF (1:2000, Sigma-Aldrich, Merck) and mouse pCREB (1:300, Sigma-Aldrich, Merck) in PBS with 2%
normal donkey serum, 0.1% BSA, and 0.2% Triton X-100 overnight at 4°C. After three PBS washing steps, wells
were incubated with secondary antibody cocktails (1:400, Jackson Immuno Research) containing suitable
were mounted with glycerol gelatin (Sigma-Aldrich, Merck) and imaged on a Zeiss LSM 780/880 confocal
microscope (Zeiss). Images were analyzed and equally contrasted for visualization with ZEN Pro (Zeiss) and

hOTR [2] = biological target: T2, hOTR (Homo sapiens, UniProt P30559); experiment: Radioligand displacement and saturation binding, membranes of HEK293 cells stably expressing hOTR, [3H]-OT; settings: [3H]-OT, mean ± SD, duplicates, at least three independent experiments
T2 construct: expressed in transfected cells
T2 sequence (P30559 1-389): T1 sequence (P30559 1-389)
Protocol: (§1) Membrane preparation for radioligand assays. HEK293 cells were used for stable expression of GFP-tagged
(§2) human OTR, V1aR, V1bR, and V2R isoforms and transient expression of murine OTR, V1aR, V1bR, and V2R
(§3) isoforms. Cell culture work was performed under sterile conditions with DMEM high glucose containing 10%
(§4) FBS, and 50 U/mL P/S. Cells were cultured in 10 cm diameter cell culture dishes at 37°C in a humidified
(§5) atmosphere with 5% CO2, and cells were passaged at 70-90% confluency.
(§6) medium of stable cell lines at 0.5 mg/mL to sustain selection pressure, and cells were harvested at 90% confluency
(§7) for membrane preparation. For transient expression of murine receptors, 60% confluent wild-type HEK293 cells
(§8) were transfected using the jetPRIME transfection reagent according to the manufacturer’s protocol and harvested
(§9) 48 h post-transfection. For membrane preparation, cells were washed with ice-cold PBS pH 7.4, scraped into fresh
(§10) PBS on ice, and centrifuged at 4°C and 178 g for 10 min. The pellet was resuspended in a TRIS buffer solution
ice-cold water bath sonicator. The obtained solution was centrifuged for 20 min at 54,192 g and 4°C. The obtained
pellet was resuspended in TRIS buffer without protease inhibitors, homogenized with an ultrasonicator, aliquoted,
and stored at -80°C until further use. A BCA assay was used to determine the protein concentration of the
Radioligand displacement and saturation experiments. Assay solutions consisting of competing ligand,
radioligand, and membrane preparation were incubated for 1 h at 37°C. Standard binding buffer solution (50 mM
TRIS, 5 mM MgCl2, 0.1% BSA, pH 7.4) was used to prepare all dilutions; the final assay volume was 200 µL.
concentrations were 8 μg/vial for hOTR, 5 μg/vial for hV1aR, and 3 μg/vial for hV1bR and hV2R, respectively , and
4 μg/vial for mOTR, 1.5 μg/vial for m V1aR, 3 μg/vial for mV 1bR, and 10 μg/vial for mV 2R. To assess non-specific
Specific binding was determined by
subtraction of the non-specific binding from the total binding. In radioligand displacement experiments, semi -
logarithmically spaced concentrations of respective test ligands were applied to determine K i values based on
assessed Kd values of radiotracers and by fitting the data to a three -parameter logistic Hill equation and applying
the Cheng and Prusoff approximation. 10 In case of human receptors from stable cell lines, Kd and Bmax values were
In case of murine receptors from transient
was performed using GraphPad Prism (version 9.5.1) . After incubation, membranes were filtered and washed on
a Skatron Cell Harvester using polyethyleneimine -coated glass fiber filters (type B, soaked in 0.1% aqueous
1 mM MgCl2, pH 7.4, 4°C). The soaked filter pieces were transferred into counter vials, and 2 mL of scintillation
cocktail (LSC Universalcocktail) was added to each vial. After 1 h incubation at 25°C on a shaker, radioligand
concentration was determined using a Tri -Carb liquid scintillation analyzer.
response curves were obtained from radioligand displacement experiments of membrane preparations of HEK293
Values were normalized to the percentage
of maximum binding (i.e., no competing ligand present). Specific binding was obtained from the subtraction of
non-specific binding from total binding. K i values were derived from one-site-fitted competition binding curves.

[3] = system: CREB phosphorylation via hOTR-GFP; experiment: In vitro phosphorylation assay (pCREB) in hOTR-GFP HEK293 cells; format: cell-based, human; settings: range 1 nM to 1 µM
[4] = system: parent HEK293 cells lacking hOTR; settings: 100 nM
[5] = biological target: hV1aR-GFP in HEK293 cells (Homo sapiens, UniProt P37288); experiment: Tracer signal and internalization in hV1aR-GFP HEK293 cells post ICC; settings: 100 nM
Sequence of hV1aR-GFP in HEK293 cells (P37288 whole entry): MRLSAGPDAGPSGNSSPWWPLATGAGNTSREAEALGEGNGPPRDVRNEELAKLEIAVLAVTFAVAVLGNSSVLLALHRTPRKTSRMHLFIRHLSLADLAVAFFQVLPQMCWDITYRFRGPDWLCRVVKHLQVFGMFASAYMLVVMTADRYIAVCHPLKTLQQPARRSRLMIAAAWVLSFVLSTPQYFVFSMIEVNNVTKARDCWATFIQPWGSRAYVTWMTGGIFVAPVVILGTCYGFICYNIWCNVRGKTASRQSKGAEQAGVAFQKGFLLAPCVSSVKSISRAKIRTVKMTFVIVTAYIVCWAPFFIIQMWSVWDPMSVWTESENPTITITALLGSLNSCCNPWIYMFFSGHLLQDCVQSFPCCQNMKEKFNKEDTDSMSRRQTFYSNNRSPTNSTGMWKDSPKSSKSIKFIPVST

hOTR-GFP in HEK293 cells [6] = biological target: T1, hOTR-GFP in HEK293 cells; experiment: Live single-particle tracking (TIRFM, uPAINT) of hOTR
Protocol: We first exposed hOTR‐GFP cells to 10 and 100 nM of tracer (11) during acquisition with a ZEISS Lattice SIM microscope (Movies S1 and S2). […] To further disentangle the dynamics of our tracer‐mediated OTR engagement and trafficking, we evaluated its applicability in single‐particle tracking (SPT) in living cells. We cultured HEK293 (parent cells) and HEK293 cells stably expressing hOTR‐GFP (HEK293‐hOTR‐GFP) and performed total internal reflection microscopy (TIRFM) SPT universal point accumulation imaging in nanoscale topography (uPAINT) following the addition of 1 nM of tracer (10). […] This concentration was selected to facilitate the detection and tracking of single molecules of the fluorescent agonist tracer following binding to hOTR at the plasma membrane by uPAINT. […] We first assessed the number of tracks (indicative of the number of single molecules detected/tracked). […] We quantified the mean squared displacement of each trajectory to calculate its apparent diffusion coefficient. The diffusion coefficient of each trajectory of the tracer bound to hOTR was plotted as a frequency distribution (Figure 7b2 ).
Live cell imaging. For 3D live cell imaging, attached and serum -starved HEK293-hOTR-GFP cells in 96-well
glass bottom plates were imaged on a ZEISS Lattice SIM Microscope using a 40x oil objective and SIM 2 post- […]

hOTR [7] = biological target: T2, hOTR; parameters: method as in PMID 8126695; settings: cited from earlier work
hV1aR = biological target: T3, hV1aR (Homo sapiens, UniProt P37288); experiment: Radioligand displacement and saturation binding, membranes of HEK293 cells stably expressing hV1aR, [3H]-VP
T3 construct: expressed in transfected cells
T3 sequence (P37288 whole entry): as above
Protocol: as §1, §2, §3, §4, §5, §6, §7, §8, §9, §10
(§11) ice-cold water bath sonicator. The obtained solution was centrifuged for 20 min at 54,192 g and 4°C. The obtained […]
Specific binding was determined by […]
(§12) assessed Kd values of radiotracers and by fitting the data to a three -parameter logistic Hill equation and applying […]
(§13) concentration was determined using a Tri -Carb liquid scintillation analyzer. […]

hV1bR = biological target: T4, hV1bR (Homo sapiens, UniProt P47901); experiment: Radioligand displacement and saturation binding, membranes of HEK293 cells stably expressing hV1bR, [3H]-VP
T4 construct: expressed in transfected cells; membrane preparation
T4 sequence (P47901 1-424): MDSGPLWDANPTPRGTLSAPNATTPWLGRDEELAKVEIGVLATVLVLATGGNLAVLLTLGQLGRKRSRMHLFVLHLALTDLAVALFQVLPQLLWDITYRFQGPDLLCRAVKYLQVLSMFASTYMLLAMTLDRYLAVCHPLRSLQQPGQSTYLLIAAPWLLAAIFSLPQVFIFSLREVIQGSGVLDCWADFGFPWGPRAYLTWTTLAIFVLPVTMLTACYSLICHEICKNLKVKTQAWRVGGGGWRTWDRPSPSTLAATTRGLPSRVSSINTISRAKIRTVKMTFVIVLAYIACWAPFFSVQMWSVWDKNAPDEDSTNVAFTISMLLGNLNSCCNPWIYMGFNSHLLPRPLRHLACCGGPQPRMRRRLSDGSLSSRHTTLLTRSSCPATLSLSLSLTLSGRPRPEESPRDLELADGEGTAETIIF
Protocol: as §1, §2, §3, §4, §5, §6, §7, §8, §9, §10, §11
Specific binding was determined by […]
as §12, §13

hV2R = biological target: T5, hV2R (Homo sapiens, UniProt P30518); experiment: Radioligand displacement and saturation binding, membranes of HEK293 cells stably expressing hV2R, [3H]-VP
T5 construct: expressed in transfected cells; membrane preparation
T5 sequence (P30518 whole entry): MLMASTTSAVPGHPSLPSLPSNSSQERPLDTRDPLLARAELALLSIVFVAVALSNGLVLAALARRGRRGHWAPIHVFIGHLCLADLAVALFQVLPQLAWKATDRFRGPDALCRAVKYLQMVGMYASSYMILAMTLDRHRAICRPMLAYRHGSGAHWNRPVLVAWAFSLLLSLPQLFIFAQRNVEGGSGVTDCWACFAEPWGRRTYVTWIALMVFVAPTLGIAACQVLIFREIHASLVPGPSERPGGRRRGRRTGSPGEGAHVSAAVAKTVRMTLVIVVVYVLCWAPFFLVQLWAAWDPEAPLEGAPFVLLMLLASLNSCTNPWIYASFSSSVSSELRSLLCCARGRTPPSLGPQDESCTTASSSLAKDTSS
Protocol: as §1, §2, §3, §4, §5, §6, §7, §8, §9, §10, §11
Specific binding was determined by […]
as §12, §13

[8] = system: rat embryonic hippocampal neurons; experiment: Tracer uptake in primary rat hippocampal neurons; format: cell-based; settings: 100 nM, 1 h; E17.5 neurons cultured 14 days
Protocol: Finally, we evaluated whether tracer (11) is applicable in primary cells endogenously expressing OTR.
Primary UtSMC and hippocampal neuronal cultures.
Muscle Cell Basal Medium 2 (PromoCell), including supplements (PromoCell) and P/S (Gibco) at 37°C and 5%
CO2. Cells were trypsinized with 0.1% Trypsin/EDTA (Gibco) and plated on glass -bottom 96-well plates (CellVis)
at a density of 10,000 cells/well in full growth medium. The next day, cells were stimulated with tracer ( 11), OTA ,
dissociated with flame -polishe d Pasteur pipettes in Hank’s balanced salt solution (HBSS, Gibco). Tissue pieces
were subsequently enzymatically dissociated with 0.1% Trypsin/EDTA (Gibco) in Neurobasal A (NBA, Gibco)
containing 1,000U/mL DNase (Sigma) for 5 min at 37°C. Cells were triturated with flamed Pasteur pipettes,
filtered through a 40 µm nylon mesh ( Thermo Fisher Scientific ), centrifuged at 200 g for 5 min, and washed up to
three times in NBA containing P/S (Gibco), GlutaMax (Gibco) , and B27 supplement (Gibco). Cells were plated at
20,000 cells/well on PDL -coated (Sigma) glass -bottom black 96 -well microscopy plates (Cellvis) and grown at
37°C with 5% CO 2. Half of the medium was replaced every 3 -4 days. After 13 -14 days in vitro , neuronal cultures
were exposed to 100 nM tracer ( 11) for one hour, with or without 30-min pretreatment with 10 µM of the peptide
antagonist OTA. […]

SMILES: CC[C@H](C)[C@@H]1NC(=O)[C@H](Cc2ccc(O)cc2)NC(=O)CCSSC[C@@H](C(=O)N2CCC[C@H]2C(=O)N[C@@H](CCCNC(=O)CCOCCOCCOCCOCCOCCNC(=O)CCCCC[N+]2=C(C=CC=CC=C3N(CC)c4ccc(S(=O)(=O)O)cc4C3(C)C)C(C)(C)c3cc(S(=O)(=O)[O-])ccc32)C(=O)NCC(N)=O)NC(=O)[C@H](CC(N)=O)NC(=O)[C@H](CCC(N)=O)NC1=O [Compound 3, d(Orn)^8OT‐[PEG5‐Cy5s]^8] ([Mpa]YIQNCP[Orn]([PEG5-X3])G-NH2; disulfide 1-6)
- hOTR-GFP internalization (hOTR-GFP in HEK293 cells [1]): significant hOTR‐GFP internalization
- Tracer retention after ICC protocols (hOTR-GFP in HEK293 cells [1]): washout after ICC protocols
- Tracer signal after prolonged stimulation (hOTR-GFP in HEK293 cells [1]): scarcely detectable

SMILES: CC[C@H](C)[C@@H]1NC(=O)[C@H](Cc2ccc(O)cc2)NC(=O)CCSSC[C@@H](C(=O)N2CCC[C@H]2C(=O)N[C@@H](CCCNC(=O)CCOCCOCCOCCOCCOCCNC(=O)CCCCC[N+]2=C(C=CC=C3N(CC)c4ccc(S(=O)(=O)[O-])cc4C3(C)C)C(C)(C)c3cc(S(=O)(=O)O)ccc32)C(=O)NCC(N)=O)NC(=O)[C@H](CC(N)=O)NC(=O)[C@H](CCC(N)=O)NC1=O [Compound 4, d(Orn)^8OT‐[PEG5‐Cy3s]^8] ([Mpa]YIQNCP[Orn]([PEG5-X1])G-NH2; disulfide 1-6)
- Ki (hOTR [2]; read-out: Ki hOTR): 1.5 ± 0.6 nM

SMILES: CC[C@H](C)[C@@H]1NC(=O)[C@H](Cc2ccc(O)cc2)NC(=O)CCSSC[C@@H](C(=O)N2CCC[C@H]2C(=O)N[C@@H](CCCNC(=O)[C@H](N)CCCCNC(=O)[C@H](N)CCCCNC(=O)CCCCC[N+]2=C(C=CC=CC=C3N(CC)c4ccc(S(=O)(=O)O)cc4C3(C)C)C(C)(C)c3cc(S(=O)(=O)[O-])ccc32)C(=O)NCC(N)=O)NC(=O)[C@H](CC(N)=O)NC(=O)[C@H](CCC(N)=O)NC1=O [Compound 5] ([Mpa]YIQNCP[Orn]([d(εLys)-d(εLys)-X3])G-NH2; disulfide 1-6)
- Concentration from which CREB phosphorylation was observed [3]: ≥ 10 nM
- Concentration from which tracer accumulation and GFP internalization were observed (hOTR-GFP in HEK293 cells [1]; hOTR-GFP HEK293 cells): ≥ 10 nM
- Internalization in parent HEK293 cells [4]: nor was it internalized into the cytoplasm
- pCREB induction in parent HEK293 cells [4]: did not affect pCREB induction

SMILES: CC[C@H](C)[C@@H]1NC(=O)[C@H](Cc2ccc(O)cc2)NC(=O)CCSSC[C@@H](C(=O)N2CCC[C@H]2C(=O)N[C@@H](CCCNC(=O)CCOCCOCCOCCOCCOCCNC(=O)[C@H](N)CCCCNC(=O)CCCCC[N+]2=C(C=CC=C3N(CC)c4ccc(S(=O)(=O)[O-])cc4C3(C)C)C(C)(C)c3cc(S(=O)(=O)O)ccc32)C(=O)NCC(N)=O)NC(=O)[C@H](CC(N)=O)NC(=O)[C@H](CCC(N)=O)NC1=O [Compound 8, d(Orn)^8OT‐[PEG5‐k^ε‐Cy3s]^8] ([Mpa]YIQNCP[Orn]([PEG5-d(εLys)-X1])G-NH2; disulfide 1-6)
- Cy3s signal accumulation in hOTR-expressing cells (hOTR-GFP in HEK293 cells [1]; post ICC, normalized to control): significant concentration‐dependent accumulation
- Fluorescent signals and internalization in hV1aR-containing cells [5]: displayed fluorescent signals and internalization

SMILES: Cc1ccccc1N1CCN(S(=O)(=O)C[C@]23CC[C@H](C[C@@H]2NC(=O)[C@@H](N)CCS(C)(=O)=O)C3(C)C)CC1 [L368,899, reference compound]
- IC50 (hOTR [7]): 26 nM
- Effect of antagonist pretreatment on tracer (11) uptake (hOTR-GFP in HEK293 cells [1]; 10 µM, 30 min pretreatment): completely prevented tracer (11) uptake

SMILES: CC[C@H](C)[C@@H]1NC(=O)CCSSC[C@@H](C(=O)N2CCC[C@H]2C(=O)N[C@@H](CCCNC(=O)[C@@H](CC(=O)O)NC(=O)CCOCCOCCOCCOCCOCCNC(=O)[C@H](N)CCCCNC(=O)CCCCC[N+]2=C(C=CC=C3N(CC)c4ccc(S(=O)(=O)[O-])cc4C3(C)C)C(C)(C)c3cc(S(=O)(=O)O)ccc32)C(=O)NCC(N)=O)NC(=O)[C@H](CCC(N)=O)NC(=O)[C@H](Cc2ccc(O)cc2)NC(=O)[C@H](CC(N)=O)NC1=O [Scrambled tracer (SCR), dCINYQCP(Orn)G‐[d‐PEG5‐k^ε‐Cy3s]^8] ([Mpa]INYQCP[Orn]([dD-PEG5-d(εLys)-X1])G-NH2; disulfide 1-6)
- Ki (hOTR [2]; Ki hOTR): > 10000 nM
- Ki (hV1aR): > 10000 nM
- Ki (hV1bR): > 10000 nM
- Ki (hV2R): > 10000 nM
- Tracer uptake in rat hippocampal neurons [8]: not taken up by neurons
- hOTR-GFP internalization (hOTR-GFP in HEK293 cells [1]): did not induce hOTR‐GFP internalization or accumulate in the cell cytoplasm

Other lines, results leading:

- hOTR-GFP internalization (hOTR-GFP in HEK293 cells [1]): significant hOTR‐GFP internalization
- Tracer retention after ICC protocols (hOTR-GFP in HEK293 cells [1]): remained present and detectable
- Tracer signal after prolonged stimulation (hOTR-GFP in HEK293 cells [1]): Signal intensity was increased
SMILES: CC[C@H](C)[C@@H]1NC(=O)[C@H](Cc2ccc(O)cc2)NC(=O)CCSSC[C@@H](C(=O)N2CCC[C@H]2C(=O)N[C@@H](CCCNC(=O)CCOCCOCCOCCOCCOCCNC(=O)[C@H](N)CCCCNC(=O)CCCCC[N+]2=C(C=CC=CC=C3N(CC)c4ccc(S(=O)(=O)O)cc4C3(C)C)C(C)(C)c3cc(S(=O)(=O)[O-])ccc32)C(=O)NCC(N)=O)NC(=O)[C@H](CC(N)=O)NC(=O)[C@H](CCC(N)=O)NC1=O [Compound 7, d(Orn)^8OT‐[PEG5‐k^ε‐Cy5s]^8] ([Mpa]YIQNCP[Orn]([PEG5-d(εLys)-X3])G-NH2; disulfide 1-6)

- Ki (hOTR [2]; read-out: Ki hOTR): 1.5 ± 0.5 nM
SMILES: CC[C@H](C)[C@@H]1NC(=O)[C@H](Cc2ccc(O)cc2)NC(=O)CCSSC[C@@H](C(=O)N2CCC[C@H]2C(=O)N[C@@H](CCCNC(=O)CCOCCOCCOCCOCCOCCNC(=O)CCOCCOCCOCCOCCOCCNC(=O)[C@H](N)CCCCNC(=O)CCCCC[N+]2=C(C=CC=C3N(CC)c4ccc(S(=O)(=O)O)cc4C3(C)C)C(C)(C)c3cc(S(=O)(=O)[O-])ccc32)C(=O)NCC(N)=O)NC(=O)[C@H](CC(N)=O)NC(=O)[C@H](CCC(N)=O)NC1=O [Compound 9, d(Orn)^8OT‐[PEG5‐PEG5‐k^ε‐Cy3s]^8] ([Mpa]YIQNCP[Orn]([PEG5-PEG5-d(εLys)-X4])G-NH2; disulfide 1-6)

- Average (apparent) diffusion coefficient (hOTR-GFP in HEK293 cells [6]; 1 nM tracer, HEK293-hOTR-GFP, 50 Hz, tracer bound to hOTR, mean ± SEM): 0.206 ± 0.017 µm^2 s^−1
- Average number of tracks (per cell) (hOTR-GFP in HEK293 cells [6]; HEK293-hOTR-GFP cells, N=9 cells, 3 independent experiments): 4884 ± 1718
SMILES: CC[C@H](C)[C@@H]1NC(=O)[C@H](Cc2ccc(O)cc2)NC(=O)CCSSC[C@@H](C(=O)N2CCC[C@H]2C(=O)N[C@@H](CCCNC(=O)[C@@H](CC(=O)O)NC(=O)CCOCCOCCOCCOCCOCCNC(=O)CCCCC[N+]2=C(C=CC=CC=C3N(CC)c4ccc(S(=O)(=O)O)cc4C3(C)C)C(C)(C)c3cc(S(=O)(=O)[O-])ccc32)C(=O)NCC(N)=O)NC(=O)[C@H](CC(N)=O)NC(=O)[C@H](CCC(N)=O)NC1=O [Compound 10, d(Orn)^8OT‐[d‐PEG5‐Cy5s]^8] ([Mpa]YIQNCP[Orn]([dD-PEG5-X3])G-NH2; disulfide 1-6)
